These compounds were tested on Escherichia coli (ATCC25922) or Staphylococcus aureus (ATCC25923) (assay: Antibacterial MIC, microdilution method in Mueller-Hinton medium). Details: Escherichia coli, 18 h, MIC in E. coli or S. aureus; two-fold serial dilutions 64 to 0.5 μg/ml in duplicate; 18 hours of incubation at 35° C.; read-out: Potency (MIC).
Format: cell-based
How it was run: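 Two-fold serial dilutions from 64 to 0.5 μg/ml, in duplicate, by broth microdilution in Mueller-Hinton medium (NCCLS M7-A5). MIC taken as the lowest concentration preventing visible growth after 18 h at 35° C.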

SMILES	MIC
N[C@@H]1C[C@H](N)CN(c2nc(Nc3ccc(S(=O)(=O)Nc4ccc5cn[nH]c5c4)cc3)nc(N3C[C@H](N)C[C@H](N)C3)n2)C1 [N-[4-(1H-indazol-6-ylsulfamoyl)-phenyl]-4,6-Bis-((3R,5S)-3,5-diamino-piperidin-1-yl)-[1,3,5]triazine-2-amine]	> 64 µg/mL
N[C@@H]1C[C@H](N)CN(c2nc(Nc3ccc(NC(=O)C(F)(F)F)cc3)nc(N3C[C@H](N)C[C@H](N)C3)n2)C1 [N-[4-(2,2,2-trifluoro-acetylamino)-phenyl]-4,6-Bis-((3R,5S)-3,5-diamino-piperidin-1-yl)-[1,3,5]triazine-2-amine]	> 64 µg/mL
CC(C)(C)C(=O)Nc1ccc(Nc2nc(N3CCCCC3)nc(N3CCCCC3)n2)cc1O.Cl [N-[4-(2,2-dimethyl-propionylammino)-3-hydroxy-phenyl]-4,6-Bis-((3R,5S)-3,5-diamino-piperidin-1-yl)-[1,3,5]triazine-2-amine]	< 64 µg/mL
Cl.O=C(Nc1ccc(Cl)cc1Cl)c1ccc(Nc2nc(N3CCCCC3)nc(N3CCCCC3)n2)cc1O [N-[4-(2,4-dichloro-phenylcarbamoyl)-3-hydroxy-phhenyl]-4,6-Bis-((3R,5S)-3,5-diamino-piperidin-1-yl)-[1,3,5]triazine-2-amine]	< 16 µg/mL
Cc1cc(Nc2nc(N3C[C@H](N)C[C@H](N)C3)nc(N3C[C@H](N)C[C@H](N)C3)n2)ccc1NC(=O)c1ccc(O)cc1O [N-[4-(2,4-dihydroxy-benzoylamino)-3-methyl-phenyl]-4,6-Bis-((3R,5S)-3,5-diamino-piperidin-1-yl)-[1,3,5]triazine-2-amine]	< 16 µg/mL
Cl.O=C(Nc1ccc(Nc2nc(N3CCCCC3)nc(N3CCCCC3)n2)cc1O)c1c(Cl)cccc1Cl [N-[4-(2,6-dichloro-benzoylamino)-3-hydroxy-phenyl]-4,6-Bis-((3R,5S)-3,5-diamine-piperidin-1-yl)-[1,3,5]triazine-2-amine]	< 64 µg/mL
Cc1cc(NS(=O)(=O)c2ccc(Nc3nc(N4C[C@H](N)C[C@H](N)C4)nc(N4C[C@H](N)C[C@H](N)C4)n3)cc2)nc(C)n1.Cl [N-[4-(2,6-dimethyl-pyrimidin-4-ylsulfamoyl)-phenyl]-4,6-Bis-((3R,5S)-3,5-diamino-piperidin-1-yl)-[1,3,5]triazine-2-amine]	> 64 µg/mL
Cl.O=C(Nc1cc(C(F)(F)F)ccc1Cl)c1ccc(Nc2nc(N3CCCCC3)nc(N3CCCCC3)n2)cc1O [N-[4-(2-chloro-5-trifluoromethyl-phenylcarbamoyl)-3-hydroxy-phenyl]-4,6-Biss-((3R,5S)-3,5-diamino-piperidin-1-yl)-[1,3,5]triazine-2-amine]	< 64 µg/mL
Cl.O=C(Nc1ccccc1Cl)c1ccc(Nc2nc(N3CCCCC3)nc(N3CCCCC3)n2)cc1O [N-[4-(2-choro-phenylcarbamoyl)-3-hydroxy-phenyl]-4,6-Bis-((3R,5S)-3,5-diamino-piperidin-1-yl)-[1,3,5]triazine-2-amine]	< 64 µg/mL

Same assay, conditions: Escherichia coli, 18 h, read-out: Potency (MIC)

SMILES	MIC
N[C@@H]1C[C@H](N)CN(c2nc(Nc3ccc(C(=O)Nc4ccc5[nH]cnc5c4)c(O)c3)nc(N3C[C@H](N)C[C@H](N)C3)n2)C1 [N-[4-(1H-benzoimidazol-5-ylcarbamoyl)-3-hydroxy-phenyl]-4,6-Bis-((3R,5S)-3,5-diamino-piperidin-1-yl)-[1,3,5]triazine-2-amine]	< 16 µg/mL
N[C@@H]1C[C@H](N)CN(c2nc(Nc3ccc(C(=O)Nc4ccc5c(c4)OC(F)(F)O5)c(O)c3)nc(N3C[C@H](N)C[C@H](N)C3)n2)C1 [N-[4-(2,2-difluoro-benzo[1,3]dioxol-5-ylcarbamoyl)-3-hydroxy-phenyl]-4,6-Bis-((3R,5S)-3,5-diamino-piperidin-1-yl)-[1,3,5]triazine-2-amine]	< 16 µg/mL
N[C@@H]1C[C@H](N)CN(c2nc(Nc3ccc(NC(=O)c4cccc(O)c4O)c(O)c3)nc(N3C[C@H](N)C[C@H](N)C3)n2)C1 [N-[4-(2,3-dihydroxy-benzoylamino)-3-hydroxy-phenyl]-4,6-Bis-((3R,5S)-3,5-diamino-piperidin-1-yl)-[1,3,5]triazine-2-amine]	< 16 µg/mL
Cc1cc(Nc2nc(N3C[C@H](N)C[C@H](N)C3)nc(N3C[C@H](N)C[C@H](N)C3)n2)ccc1NC(=O)c1cccc(O)c1O [N-[4-(2,3-dihydroxy-benzoylamino)-3-methyl-phenyl]-4,6-Bis-((3R,5S)-3,5-diamino-piperidin-1-yl)-[1,3,5]triazine-2-amine]	< 16 µg/mL
N[C@@H]1C[C@H](N)CN(c2nc(Nc3ccc(NC(=O)c4cccc(O)c4O)cc3)nc(N3C[C@H](N)C[C@H](N)C3)n2)C1 [N-[4-(2,3-dihydroxy-benzoylamino)-phenyl]-4,6-Bis-((3R,5S)-3,5-diamino-piperidin-1-yl)-[1,3,5]triazine-2-amine]	< 16 µg/mL
Cc1cc(O)c(C)c(O)c1C(=O)Nc1ccc(Nc2nc(N3C[C@H](N)C[C@H](N)C3)nc(N3C[C@H](N)C[C@H](N)C3)n2)cc1 [N-[4-(2,4-dihydroxy-3,6-dimethyl-benzoylamino)-phenyl]-4,6-Bis-((3R,5S)-3,5-diamino-piperidin-1-yl)-[1,3,5]triazine-2-amine]	< 16 µg/mL
Cc1cc(NC(=O)c2ccc(O)cc2O)ccc1Nc1nc(N2C[C@H](N)C[C@H](N)C2)nc(N2C[C@H](N)C[C@H](N)C2)n1 [N-[4-(2,4-dihydroxy-benzoylamino)-2-methyl-phenyl]-4,6-Bis-((3R,5S)-3,5-diamino-piperidin-1-yl)-[1,3,5]triazine-2-amine]	< 64 µg/mL
N[C@@H]1C[C@H](N)CN(c2nc(Nc3ccc(NC(=O)c4ccc(O)cc4O)c(O)c3)nc(N3C[C@H](N)C[C@H](N)C3)n2)C1 [N-[4-(2,4-dihydroxy-benzoylamino)-3-hydroxy-phenyl]-4,6-Bis-((3R,5S)-3,5-diamino-piperidin-1-yl)-[1,3,5]triazine-2-amine]	< 16 µg/mL
N[C@@H]1C[C@H](N)CN(c2nc(Nc3ccc(NC(=O)c4ccc(O)cc4O)cc3)nc(N3C[C@H](N)C[C@H](N)C3)n2)C1 [N-[4-(2,4-dihydroxy-benzoylamino)-phenyl]-4,6-Bis-((3R,5S)-3,5-diamino-piperidin-1-yl)-[1,3,5]triazine-2-amine]	< 16 µg/mL
COc1ccc(OC)c(NC(=O)c2ccc(Nc3nc(N4C[C@H](N)C[C@H](N)C4)nc(N4C[C@H](N)C[C@H](N)C4)n3)cc2O)c1 [N-[4-(2,5-dimethoxy-phenylcarbamoyl)-3-hydroxy-phenyl]-4,6-Bis-((3R,5S)-3,5-diamino-piperidin-1-yl)-[1,3,5]triazine-2-amine]	< 16 µg/mL
COc1cccc(OC)c1C(=O)Nc1ccc(Nc2nc(N3C[C@H](N)C[C@H](N)C3)nc(N3C[C@H](N)C[C@H](N)C3)n2)cc1O [N-[4-(2,6-dimethoxy-benzoylamino)-3-hydroxy-phenyl]-4,6-Bis-((3R,5S)-3,5-diamino-piperidin-1-yl)-[1,3,5]triazine-2-amine]	< 64 µg/mL
N[C@@H]1C[C@H](N)CN(c2nc(Nc3ccc(NC(=O)c4ccccc4Cl)c(O)c3)nc(N3C[C@H](N)C[C@H](N)C3)n2)C1 [N-[4-(2-chloro-benzoylamino)-3-hydroxy-phenyl]-4,6-Bis-((3R,5S)-3,5-diamino-piperidin-1-yl)-[1,3,5]triazine-2-amine]	< 64 µg/mL
CCN(CC)CCNC(=O)c1ccc(Nc2nc(N3C[C@H](N)C[C@H](N)C3)nc(N3C[C@H](N)C[C@H](N)C3)n2)cc1 [N-[4-(2-diethylamino-ethylcarbamoyl)-phenyl]-4,6-Bis-((3R,5S)-3,5-diamino-piperidin-1-yl)-[1,3,5]triazine-2-amine]	< 64 µg/mL

Source: patent US7223759B2, “Antibacterial 3,5-diaminopiperidine-substituted aromatic and heteroaromatic compounds” (Anadys Pharmaceuticals, Inc., priority 2003, dated 2007)
